From the supplement of paper PMC11997997

What was measured:
[1] = test system: murine bone marrow-derived macrophages; assay: area under cytotoxicity dose-response curve (AUC (% cytotoxicity x dose, relative)); higher = more cytotoxic; details: duration: 6 days; dose range: 0.13-80 uM, 8 points
Outline: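 Primary murine bone marrow-derived macrophages in opaque 384-well plates were exposed to an 8-point, 2.5-fold dilution series (final 80–0.13 μM) for 6 days at 37 °C in 5% CO2. Viability was read with Promega's CellTiter-Glo luminescence assay, and percent cytotoxicity was normalised to vehicle and positive control wells. Cytotoxicity is reported as the area under the dose–response curve, calculated in GraphPad Prism version 10.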

[2] = test system: Mycobacterium tuberculosis CDC1551 (intracellular, in murine BMDM); assay: area under intracellular growth-inhibition dose-response curve (AUC (% inhibition x dose, relative)); higher = more potent; details: duration: 6 days; dose range: 0.13-80 uM, 8 points
Outline: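 Macrophages derived from primary murine bone marrow were infected for 1 h at multiplicity of infection 1 with luciferase-expressing M. tuberculosis CDC1551, then treated for 6 days at final concentrations of 80–0.13 μM. Bright-Glo luciferin signal, normalised to a reference drug control and the lowest-concentration wells, gave the growth readout. Area under the growth-inhibition dose–response curve was then calculated in GraphPad Prism.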

SMILES	area under cytotoxicity dose-response curve [1]	area under intracellular growth-inhibition dose-response curve [2]
COc1cc(CNC23CC4CC(CC(C4)C2)C3)ccc1OCc1ccccc1.Cl	89.1	143
O=[N+]([O-])c1ccc(CN2CCN(c3ccc(F)cc3)CC2)o1	< 0	245
COc1ccccc1C(CNC(=O)c1ccc(-c2ccccc2Cl)o1)N1CCCC1 (stereo not drawn)	141	164
CC(C(=O)NC1C(=O)N2C(C(=O)O)=C(CSc3nnnn3C)CSC12)n1cc(Cl)cn1 (stereo not drawn)	23.7	174
O=C(NCc1ccc2c(c1)OCO2)c1cccc(F)c1	< 0	222
O=[N+]([O-])c1ccc(CN2CCN(c3ccc(Cl)cc3)CC2)o1	33.9	222
CC(NC(=O)c1ccccc1)c1ccc(F)cc1 (stereo not drawn)	< 0	265
COc1ccc(/C=N/NC(=O)c2ccncc2)cc1CN1CCN(c2ccc(F)cc2)CC1	3.26	228
CC(C)[C@H](CN1CCC[C@H]1CN1C(N)=NC[C@@H]1Cc1ccccc1)N1C[C@@H](Cc2ccccc2)N(CCc2ccc(Cl)c(Cl)c2)C1=N	52.7	211
C/C(CC(=O)Nc1ccc(C)c(Cl)c1)=N\NC(=O)c1ccncc1	< 0	272
O=C(NCc1ccc(Cl)cc1)c1ccc(Br)o1	52.2	204
CN(C)[C@@H]1C(=O)C(C(N)=O)=C(O)[C@@]2(O)C(=O)C3=C(O)c4c(O)ccc(Cl)c4[C@@H](O)[C@H]3C[C@@H]12.Cl	< 0	253
Cc1cc(OCC(=O)NNC(=O)c2ccncc2)ccc1C(C)C	34.5	259
CN(C)[C@@H]1C(=O)C(C(N)=O)=C(O)[C@@]2(O)C(O)=C3C(=O)c4c(O)cccc4[C@@](C)(O)C3C[C@@H]12.Cl (stereo partly drawn)	65.9	232
Cc1ccc(C(=O)N2CCN(c3ccc(NC(=S)NC(=O)Cc4ccccc4)cc3)CC2)cc1	53.7	212
O=[N+]([O-])c1cc([N+](=O)[O-])c2nonc2c1Nc1ccccc1O	5.05	146
CCC[C@@H](CN1CCC[C@H]1CN1C(N)=NC[C@H]1CC(C)C)N1C[C@@H]([C@H](C)CC)N(CCc2ccc(Cl)c(Cl)c2)C1=N	13.4	129
O=C(NCc1ccccc1Cl)c1ccc(Br)o1	< 0	120
CCOC(=O)c1ccccc1NC(=O)c1c(F)c(F)c(F)c(F)c1F	< 0	183
Cc1cc(C(F)F)nn1CC(=O)NC1C(=O)N2C(C(=O)O)=C(CSc3nnnn3C)CSC12 (stereo not drawn)	110	86.3
CS(=O)(=O)c1ccc([C@@H](O)[C@@H](CF)NC(=O)C(Cl)Cl)cc1	62.1	78.9
CC(=O)c1c(C)[n+]([O-])c2cc(F)c(F)cc2[n+]1[O-]	13.7	45.9

SMILES	area under cytotoxicity dose-response curve [1]	area under intracellular growth-inhibition dose-response curve [2]
CCn1cc(C(=O)NCCc2ccccc2)c(=O)c2cc(S(=O)(=O)N3CCCC3)ccc21	74.8	203
C/C(=N\NC(N)=S)c1ccc2c(c1)OCCO2	25.3	196
CCOc1cc(/C=N\Nc2nc(-c3ccc(C)cc3)c(NC(C)=O)s2)ccc1O	< 0	256
Cc1cc(/C=N/NC(N)=S)c(C)n1-c1ccc(Cl)cc1	44.8	220
CO[C@@H]1[C@@H](OC(N)=O)[C@@H](O)C(Oc2ccc3c(O)c(NC(=O)c4ccc([O-])c(CC=C(C)C)c4)c(=O)oc3c2C)OC1(C)C.[Na+] (stereo partly drawn)	80.2	24.9
CO[C@H]1C=CO[C@@]2(C)Oc3c(C)c(O)c4c(O)c(c(C=NN5CCN(C)CC5)c(O)c4c3C2=O)NC(=O)C(C)=CC=C[C@H](C)[C@H](O)[C@@H](C)[C@@H](O)[C@@H](C)[C@H](OC(C)=O)[C@@H]1C	92.8	275
Cl.c1ccc(-c2nnc(CN3CCCCC3)o2)cc1	36	267
O=C(Cc1ccc(Br)cc1)N1CCCC1	< 0	208
COc1ccc(-c2ncn(CCC#N)c2[N+](=O)[O-])cc1	8.24	119
O=C(COc1ccccc1)N/N=C/c1ccc([N+](=O)[O-])o1	14.3	209
Cc1nnc(SCC2=C(C(=O)O)N3C(=O)C(NC(=O)Cn4ncc(Cl)c4C)C3SC2)s1 (stereo not drawn)	66.2	245
COc1ccc(C(=O)Oc2cc(/C=N/NC(N)=S)ccc2OC)cc1	53.3	211
CCC(=O)NC(=S)Nc1ccc(N2CCN(C(=O)c3ccc(Cl)cc3)CC2)cc1	3.79	269
CCOC(=O)/C=C/C(=O)Nc1ccc(-c2nnc3n2CCCCC3)cc1	34.8	131
[O-][n+]1onc2c3cc(-c4ccccc4)[nH]c3ccc21	40.6	74.3
Cc1ccc(/C=N/NC(=O)C2COc3ccccc3O2)s1 (stereo not drawn)	< 0	196
CC1CCC(C(C)C)C(OC(=O)Cn2c(-c3ccccc3)[n+](C)c3ccccc32)C1.[Cl-] (stereo not drawn)	12.5	124
COc1cccc2sc(N3CCN(C(=O)c4ccc([N+](=O)[O-])o4)CC3)nc12	57.3	6.52
O=C(N/N=C/c1ccc2c(c1)OCCO2)c1ccncc1	66.5	124
CS(=O)(=O)Nc1ccccc1C(=O)OCC(=O)N1CCC(c2ccccc2)=N1	< 0	115
O=C(/C=C/c1ccc(S(=O)(=O)N2CCOCC2)cc1)NCCc1ccc(C(F)(F)F)cc1	42	102
C/C(=C\c1ccccc1)C(=O)NCc1ccco1	134	111
